Results reported in patent publication US6895396B2, “Neural network methods to predict enzyme inhibitor or receptor ligand potency” (Albert Einstein College of Medicine of Yeshiva University, priority 1998, dated 2005).

target: cytidine deaminase (Escherichia coli, UniProt P0ABF6); assay: not given; conditions: binding free energy from the literature; cited from earlier work
Sequence (P0ABF6 whole entry): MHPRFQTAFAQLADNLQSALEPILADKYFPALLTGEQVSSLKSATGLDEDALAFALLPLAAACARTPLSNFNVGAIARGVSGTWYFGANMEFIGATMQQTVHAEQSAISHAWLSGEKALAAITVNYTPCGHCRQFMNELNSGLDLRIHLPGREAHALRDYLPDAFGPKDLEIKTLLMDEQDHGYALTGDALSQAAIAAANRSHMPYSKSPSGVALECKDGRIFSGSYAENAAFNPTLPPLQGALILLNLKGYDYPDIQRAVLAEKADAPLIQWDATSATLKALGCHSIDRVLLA

Question: For “hydrated 5-bromo-pyrimidine-2-one ribonucleoside”, which “ΔG/RT (experimental)” value is on record?
Answer: Its value is −18.

Question: With “hydrated pyrimidine-2-one ribonucleoside” as the molecule, how does the “ΔG/RT (experimental)” value read?
Answer: The value was −27.

Question: With `Nc1ccn([C@@H]2O[C@H](CO)[C@@H](O)[C@H]2O)c(=O)n1` [cytidine] as the molecule, how does the “ΔG/RT (experimental)” value read?
Answer: The value was −9.9.

Question: Which “ΔG/RT (experimental)” value does the source give for `O=C1NC(O)C(F)=CN1[C@@H]1O[C@H](CO)[C@@H](O)[C@H]1O` (some centres unmarked) [hydrated 5-fluoro-pyrimidine-2-one ribonucleoside] here?
Answer: The value was −24.

Question: For `O=c1ccn([C@@H]2O[C@H](CO)[C@@H](O)[C@H]2O)c(=O)[nH]1` [uridine], which “ΔG/RT (experimental)” value is on record?
Answer: Its value is −6.0.

Question: Which “ΔG/RT (experimental)” value does the source give for `O=C1NCC=CN1[C@@H]1O[C@H](CO)[C@@H](O)[C@H]1O` [3,4-dihydrozebularine] here?
Answer: Its value is −10.

Question: For `O=C1NC(O)C(Cl)=CN1[C@@H]1O[C@H](CO)[C@@H](O)[C@H]1O` (some centres unmarked) [hydrated 5-chloro-pyrimidine-2-one ribonucleoside], which “ΔG/RT (experimental)” value is on record?
Answer: The value was −19.

Question: With `NC1=NC(=O)N([C@@H]2O[C@H](CO)[C@@H](O)[C@H]2O)CC1` [5,6-dihydrocytidine] as the molecule, how does the “ΔG/RT (experimental)” value read?
Answer: The value was −9.1.

test system: AMP nucleosidase; assay: not given; conditions: binding free energy, dimensionless

Question: With aminopyrazolo pyrimidine ribonucleotide as the molecule, how does the “ΔG/RT (experimental)” value read?
Answer: Its value is −12.

Question: Which “ΔG/RT (experimental)” value does the source give for `Nc1ncnc2c1ncn2[C@@H]1O[C@H](COP(=O)(O)O)[C@@H](O)[C@H]1O` [AMP] here?
Answer: The value was −9.0.

Question: Which “ΔG/RT (experimental)” value does the source give for `Nc1ncnc2c1ccn2[C@@H]1O[C@H](CO)[C@@H](O)[C@H]1O` [tubercidin] here?
Answer: Its value is −9.9.

Question: With `Nc1ncnc2c([C@@H]3O[C@H](CO)[C@@H](O)[C@H]3O)[nH]nc12` [formycin] as the molecule, how does the “ΔG/RT (experimental)” value read?
Answer: The value was −17.

target: T1, adenosine deaminase (Homo sapiens, UniProt P00813); assay: Adenosine deaminase binding free energy, experimental; conditions: not given
T1 sequence (P00813 1-363): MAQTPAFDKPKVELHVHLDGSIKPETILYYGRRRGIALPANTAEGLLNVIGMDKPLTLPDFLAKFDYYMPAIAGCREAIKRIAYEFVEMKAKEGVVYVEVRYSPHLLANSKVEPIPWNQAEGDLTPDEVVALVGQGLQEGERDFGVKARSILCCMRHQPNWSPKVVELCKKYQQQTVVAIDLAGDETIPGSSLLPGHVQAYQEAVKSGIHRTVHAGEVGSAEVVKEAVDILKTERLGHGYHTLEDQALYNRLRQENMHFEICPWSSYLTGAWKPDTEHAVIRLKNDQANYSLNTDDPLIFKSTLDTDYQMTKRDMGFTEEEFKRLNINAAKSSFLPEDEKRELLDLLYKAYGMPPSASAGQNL

Question: With `OC[C@H]1O[C@@H](n2cnc3c2N=CNC3)[C@H](O)[C@@H]1O` [1,6-dihydropurine ribonucleoside] as the molecule, how does the “inhibitor quality in words” value read?
Answer: Its value is “not a good inhibitor”.

same assay, conditions: binding free energy, dimensionless

Question: For `OC[C@H]1O[C@@H](n2cnc3c2NC=N[C@@H]3O)[C@H](O)[C@@H]1O` [hydrated purine ribonucleoside], which “ΔG/RT (experimental)” value is on record?
Answer: Its value is −29.

Question: For `OC[C@H]1O[C@@H](n2cnc3c2N=CNC3)[C@H](O)[C@@H]1O` [1,6-dihydropurine ribonucleoside], which “ΔG/RT (experimental)” value is on record?
Answer: Its value is −12.

Question: With `Nc1ncnc2c1ncn2[C@@H]1O[C@H](CO)[C@@H](O)[C@H]1O` [adenosine] as the molecule, how does the “ΔG/RT (experimental)” value read?
Answer: Its value is −10.

Question: For (R)-coformycin, which “ΔG/RT (experimental)” value is on record?
Answer: Its value is −25.
